Assay results reported in ChEMBL document CHEMBL1158133, “Cytotoxic flavaglines and bisamides from Aglaia edulis” (J Nat Prod, 2006).
Converted amounts (≈) assume the structure as drawn.

Legend:
Lu1 = assay: Cytotoxicity against human Lu1 cells; format: functional; details: read-out: ED50 (the source's name)
LNCaP = assay: Cytotoxicity against human LNCAP cells; format: functional; details: read-out: ED50 (the source's name)
MCF7 = assay: Cytotoxicity against human MCF7 cells; format: functional; details: read-out: ED50 (the source's name)
[1] = Cytotoxicity against HUVEC; format: cell-based; details: human, HUVEC cells; read-out: ED50 (the source's name)
P388 = assay: In vivo antitumor activity against mouse P388 cellsleukemia model at 4.5 mg/kg, ip; format: functional; details: route intraperitoneal

| Structure (SMILES) | EC50 (Lu1) | EC50 (LNCaP) | EC50 (MCF7) | CC50 [1] | T/C (P388) |
| --- | --- | --- | --- | --- | --- |
| COc1ccc([C@@]23Oc4cc5c(c(OC)c4[C@]2(O)[C@H](OC(C)=O)[C@H](C(=O)N(C)C)[C@H]3c2ccccc2)OCO5)cc1 | 0.001 mg/L (≈ 0.00178 µM) | 0.01 mg/L (≈ 0.0178 µM) | 0.02 mg/L (≈ 0.0356 µM) | 0.5 mg/L (≈ 0.89 µM) | 110% |
| COc1ccc([C@@]23Oc4cc5c(c(OC)c4[C@]2(O)[C@H](OC(C)=O)[C@H](C(=O)N(C)C)[C@H]3c2ccccc2)OCO5)cc1OC | 0.5 mg/L (≈ 0.845 µM) | 0.3 mg/L (≈ 0.507 µM) | 0.8 mg/L (≈ 1.35 µM) | 0.5 mg/L (≈ 0.845 µM) |  |
| COc1ccc([C@]23Oc4cc5c(c(OC)c4[C@](O)([C@H](C(=O)N4CCCC4NC(=O)CC(C)C)[C@H]2c2ccccc2)[C@@H]3OC(C)=O)OCO5)cc1 (stereo not given in full) | > 5 mg/L | > 5 mg/L | > 5 mg/L | > 5 mg/L |  |
| COc1ccc(-c2oc3cc(OC)c(OC)c(O)c3c(=O)c2OC)cc1 | > 5 mg/L | > 5 mg/L | > 5 mg/L | > 5 mg/L |  |
| COc1ccc([C@]23Oc4cc5c(c(OC)c4[C@](O)([C@H](C(=O)N4CCCC4NC(=O)C=C(C)C)[C@H]2c2ccccc2)[C@@H]3O)OCO5)cc1 (stereo not given in full) [19,20-DEHYDROEDULIRIN A] | > 5 mg/L | > 5 mg/L | > 5 mg/L | > 5 mg/L |  |
| COC(=O)[C@@]1(c2ccc(OC)cc2)Oc2cc3c(c(OC)c2C(=O)[C@H](C(=O)N2CCC[C@@H]2NC(=O)C=C(C)C)[C@H]1c1ccccc1)OCO3 [19,20-DEHYDROEDULISONE A] | > 5 mg/L | > 5 mg/L | > 5 mg/L | > 5 mg/L |  |
| COc1ccc(C2C(=O)Oc3cc4c(c(OC)c32)OCO4)cc1 (stereo not given) [AGLALACTONE] | > 5 mg/L | > 5 mg/L | > 5 mg/L | > 5 mg/L |  |
| CS/C=C/C(=O)NC1CCCN1C(=O)/C=C/c1ccccc1 (stereo not given) [AGLAMIDE A] | > 5 mg/L | > 5 mg/L | > 5 mg/L | > 5 mg/L |  |
| C[S+]([O-])/C=C/C(=O)NC1CCCN1C(=O)/C=C/c1ccccc1 (stereo not given) [AGLAMIDE B] | > 5 mg/L | > 5 mg/L | > 5 mg/L | > 5 mg/L |  |
| CC(C)CC(=O)NC1CCCN1C(=O)/C=C/c1ccccc1 (stereo not given) [AGLAMIDE C] | > 5 mg/L | > 5 mg/L | > 5 mg/L | > 5 mg/L |  |
| COC1CCCN1C(=O)/C=C/c1ccccc1 (stereo not given) [AGLAMIDE D] | > 5 mg/L | > 5 mg/L | > 5 mg/L | > 5 mg/L |  |
| COc1ccc([C@@]23Oc4cc5c(c(OC)c4[C@]2(O)[C@H](O)[C@H](C(=O)N(C)C)[C@H]3c2ccccc2)OCO5)cc1 [AGLAROXIN A] | 0.04 mg/L (≈ 0.077 µM) | 0.02 mg/L (≈ 0.0385 µM) | 0.06 mg/L (≈ 0.115 µM) | 0.1 mg/L (≈ 0.192 µM) |  |
| COc1ccc([C@]23Oc4cc5c(c(OC)c4[C@](O)([C@H](C(=O)N4CCCC4NC(=O)CC(C)C)[C@H]2c2ccccc2)[C@@H]3O)OCO5)cc1 (stereo not given in full) [EDULIRIN A] | > 5 mg/L | > 5 mg/L | > 5 mg/L | > 5 mg/L |  |
| COc1ccc([C@]23Oc4cc5c(c(OC)c4[C@](O)([C@H](c4ccccc4)[C@H]2C(=O)N2CCCC2NC(=O)CC(C)C)[C@@H]3O)OCO5)cc1 (stereo not given in full) [EDULIRIN B] | > 5 mg/L | > 5 mg/L | > 5 mg/L | > 5 mg/L |  |
| COc1ccc([C@]23Oc4cc5c(c(OC)c4[C@](O)([C@@H](c4ccccc4)[C@@H]2C(=O)N2CCCC2NC(=O)CC(C)C)[C@@H]3O)OCO5)cc1 (stereo not given in full) [ISOEDULIRIN A] | > 5 mg/L | > 5 mg/L | > 5 mg/L | > 5 mg/L |  |
| COc1cc2ccc(=O)oc2cc1O [SCOPOLETIN] | > 5 mg/L | > 5 mg/L | > 5 mg/L | > 5 mg/L |  |
